Experimental data as given in US10919879B2, “Synthesis and novel salt forms of (R)-5-((E)-2-pyrrolidin-3-ylvinyl)pyrimidine” (Oyster Point Pharma, Inc., priority 2008, dated 2021).

Tests used:
[1] = Water solubility of the free base; format: physicochemical; settings: free base form, viscous oil
Experimental: Aqueous solubility was determined by suspending sufficient compound in water to give a maximum final concentration of ≥10 mg/mL of the parent free-form of the compound. The suspension was equilibrated at 25° C. for 24 h, and then the pH was measured. The suspension was then filtered through a glass fiber C filter into a 96 well plate. The filtrate was then diluted by a factor of 101. Quantitation was by HPLC with reference to a standard solution of approximately 0.1 mg/mL in DMSO. Different volumes of the standard, diluted and undiluted sample solutions were injected. The solubility was calculated using the peak areas determined by integration of the peak found at the same retention time as the principal peak in the standard injection. If there was sufficient solid in the filter plate, the XRPD was collected.

[2] = Stability of the free base; format: physicochemical; settings: free base form, viscous oil
α4β2 nicotinic subtype = α4β2 nicotinic subtype (Homo sapiens, UniProt P17787+P43681); settings: α4β2 over α7, ganglionic and muscle subtypes; background statement, no test described; cited from earlier work
Chain of α4β2 nicotinic subtype (P43681 29-627 limits assumed): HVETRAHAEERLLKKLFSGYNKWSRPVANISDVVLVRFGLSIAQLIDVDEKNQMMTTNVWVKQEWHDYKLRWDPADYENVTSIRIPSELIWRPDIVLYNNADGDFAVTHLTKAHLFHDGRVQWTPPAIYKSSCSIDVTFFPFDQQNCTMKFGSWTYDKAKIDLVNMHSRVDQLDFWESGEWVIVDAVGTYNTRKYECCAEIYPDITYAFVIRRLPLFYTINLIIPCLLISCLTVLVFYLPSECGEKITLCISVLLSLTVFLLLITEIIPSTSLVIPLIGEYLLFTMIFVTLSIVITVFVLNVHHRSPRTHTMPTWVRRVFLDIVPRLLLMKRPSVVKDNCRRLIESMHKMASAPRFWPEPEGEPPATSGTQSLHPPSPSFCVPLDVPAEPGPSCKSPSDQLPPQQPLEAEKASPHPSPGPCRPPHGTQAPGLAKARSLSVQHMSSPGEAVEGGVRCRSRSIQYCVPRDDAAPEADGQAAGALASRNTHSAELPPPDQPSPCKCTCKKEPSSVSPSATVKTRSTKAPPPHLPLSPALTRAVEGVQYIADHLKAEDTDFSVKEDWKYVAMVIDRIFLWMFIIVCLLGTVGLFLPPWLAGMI
Chain of α4β2 nicotinic subtype (P17787 26-502): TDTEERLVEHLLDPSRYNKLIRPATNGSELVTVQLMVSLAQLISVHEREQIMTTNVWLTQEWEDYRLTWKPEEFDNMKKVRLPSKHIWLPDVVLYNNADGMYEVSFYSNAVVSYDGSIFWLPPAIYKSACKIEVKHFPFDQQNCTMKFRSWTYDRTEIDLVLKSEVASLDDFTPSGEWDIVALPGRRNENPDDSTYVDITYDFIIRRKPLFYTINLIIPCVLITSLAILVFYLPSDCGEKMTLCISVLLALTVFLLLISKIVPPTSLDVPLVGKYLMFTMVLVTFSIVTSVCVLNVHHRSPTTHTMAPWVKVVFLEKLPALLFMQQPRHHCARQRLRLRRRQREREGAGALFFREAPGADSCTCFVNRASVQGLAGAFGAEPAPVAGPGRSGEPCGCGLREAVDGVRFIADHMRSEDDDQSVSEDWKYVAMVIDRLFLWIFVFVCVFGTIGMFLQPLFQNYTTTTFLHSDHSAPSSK

water solubility [1]: limited
stability [2]: limited
Compound: C(=C\[C@H]1CCNC1)/c1cncnc1 [(R)-5-((E)-2-pyrrolidin-3-ylvinyl)pyrimidine]
NNR agonist selectivity (α4β2 nicotinic subtype): selectivity for the α4β2 nicotinic subtype over other nicotinic subtypes
